{
  "source": "the supplement of paper PMC10307832",
  "test_in_all_cases": "relative viability (nuclei count vs DMSO), 5 days (fraction); higher = more cells survive",
  "key": {"Bortezomib + Luminespib": {"compound": "CC(C)C[C@H](NC(=O)[C@H](Cc1ccccc1)NC(=O)c1cnccn1)B(O)O [Bortezomib] + CCNC(=O)c1noc(-c2cc(C(C)C)c(O)cc2O)c1-c1ccc(CN2CCOCC2)cc1 [Luminespib] (partner 0.01 µM)", "how_it_was_run": "(§1)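 Each reported value is a median over duplicate plates. It expresses relative viability: treated-well nuclei count divided by vehicle-well nuclei count. Lung cancer cell lines in 1536-well plates were dosed by pin tool a day after seeding, alone with one drug or with a fixed anchor-drug dose plus five library-drug doses (not always all listed) in √10 steps, and nuclei were counted after 5 days.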"}, "[1]": {"compound": "CC1=CC(=NN1)NC2=CC(=NC(=N2)/C=C/C3=CC=CC=C3)N4CCN(CC4)C + CC(=O)Nc1cccc(-n2c(=O)n(C3CC3)c(=O)c3c(Nc4ccc(I)cc4F)n(C)c(=O)c(C)c32)c1 [Trametinib] (partner 0.02 µM)", "how_it_was_run": "as §1"}, "[2]": {"compound": "CC1=CC(=NN1)NC2=CC(=NC(=N2)/C=C/C3=CC=CC=C3)N4CCN(CC4)C + O=C(CCCCCCC(=O)Nc1ccccc1)NO [Vorinostat] (partner 1 µM)", "how_it_was_run": "as §1"}, "Obatoclax + Decitabine": {"compound": "COC1=CC(c2cc3ccccc3[nH]2)=N/C1=C\\c1[nH]c(C)cc1C [Obatoclax] + Nc1ncn([C@H]2C[C@H](O)[C@@H](CO)O2)c(=O)n1 [Decitabine] (partner 2 µM)", "how_it_was_run": "as §1"}},
  "data": [
    {"cell line": "NCI-H650", "values": [
      {"measurement": "relative viability", "setting": "Bortezomib + Luminespib; first compound 0.000632 µM", "value": 0.731},
      {"measurement": "relative viability", "setting": "Bortezomib + Luminespib; first compound 0.002 µM", "value": 0.676},
      {"measurement": "relative viability", "setting": "Bortezomib + Luminespib; first compound 0.006325 µM", "value": 0.469},
      {"measurement": "relative viability", "setting": "Bortezomib + Luminespib; first compound 0.02 µM", "value": 0.155},
      {"measurement": "relative viability", "setting": "[1]; first compound 0.08 µM", "value": 0.891},
      {"measurement": "relative viability", "setting": "[1]; first compound 0.253 µM", "value": 0.706},
      {"measurement": "relative viability", "setting": "[1]; first compound 0.8 µM", "value": 0.907},
      {"measurement": "relative viability", "setting": "[1]; first compound 2.53 µM", "value": 0.627},
      {"measurement": "relative viability", "setting": "[1]; first compound 8 µM", "value": 0.166},
      {"measurement": "relative viability", "setting": "[2]; first compound 0.08 µM", "value": 0.412},
      {"measurement": "relative viability", "setting": "[2]; first compound 0.253 µM", "value": 0.717},
      {"measurement": "relative viability", "setting": "[2]; first compound 0.8 µM", "value": 0.495},
      {"measurement": "relative viability", "setting": "[2]; first compound 2.53 µM", "value": 0.409},
      {"measurement": "relative viability", "setting": "[2]; first compound 8 µM", "value": 0.174},
      {"measurement": "relative viability", "setting": "Obatoclax + Decitabine; first compound 0.01 µM", "value": 0.299},
      {"measurement": "relative viability", "setting": "Obatoclax + Decitabine; first compound 0.03162 µM", "value": 0.312},
      {"measurement": "relative viability", "setting": "Obatoclax + Decitabine; first compound 0.3162 µM", "value": 0.237},
      {"measurement": "relative viability", "setting": "Obatoclax + Decitabine; first compound 1 µM", "value": 0.217}
    ]}
  ]
}
